# Experiments:
# Type in all cases: functional
# [1] = test system: Staphylococcus aureus; test: Antibacterial activity against Staphylococcus aureus ATCC 25923 assessed as bacterial growth inhibition measured after 18 hrs by agar dilution assay
# [2] = test system: Escherichia coli; test: Antibacterial activity against Escherichia coli ATCC 25922 assessed as bacterial growth inhibition measured after 18 hrs by agar dilution assay
# [3] = test system: Escherichia coli; test: Potency index, ratio of ciprofloxacin MIC to test compound MIC for antimicrobial activity against Escherichia coli assessed as bacterial growth inhibition by agar cup diffusion assay
# [4] = test system: Staphylococcus aureus; test: Antibacterial activity against Staphylococcus aureus ATCC 25923 assessed as bacterial growth inhibition by microdilution assay
# [5] = test system: Staphylococcus aureus; test: Antibacterial activity against clinical isolate methicillin resistant Staphylococcus aureus assessed as bacterial growth inhibition by microdilution assay
# [6] = test system: Staphylococcus aureus; test: Antibacterial activity against Staphylococcus aureus assessed as bacterial growth inhibition by broth microdilution assay
# [7] = test system: Pseudomonas aeruginosa; test: Antibacterial activity against Pseudomonas aeruginosa assessed as bacterial growth inhibition by broth microdilution assay
# [8] = test system: Escherichia coli; test: […] activity against Escherichia coli assessed as bacterial growth inhibition by broth dilution assay
# [9] = test system: Klebsiella pneumoniae; test: Antibacterial activity against Klebsiella pneumoniae assessed as bacterial growth inhibition by two fold microdilution assay
# [10] = test system: Escherichia coli; test: Antibacterial activity against Escherichia coli ATCC 8739 assessed as bacterial growth inhibition by two fold microdilution assay
# [11] = test system: Staphylococcus aureus; test: Antibacterial activity against Staphylococcus aureus ATCC 6538P assessed as bacterial growth inhibition by two fold microdilution assay
# [12] = test system: Escherichia coli; test: Antibacterial activity against Escherichia coli assessed as bacterial growth inhibition by broth microdilution assay
# [13] = test system: Staphylococcus aureus; test: Antibacterial activity against Staphylococcus aureus assessed as bacterial growth inhibition by two fold microdilution assay
# [14] = test system: Escherichia coli; test: Antibacterial activity against Escherichia coli assessed as bacterial growth inhibition by two fold microdilution assay
# [15] = test system: Escherichia coli; test: Antibacterial activity against fluoroquinolone Escherichia coli assessed as bacterial growth inhibition by broth microdilution assay
# [16] = test system: Enterococcus faecalis; test: Antibacterial activity against Enterococcus faecalis assessed as bacterial growth inhibition by broth microdilution assay
# [17] = test system: Staphylococcus aureus; test: Antibacterial activity against methicillin resistant Staphylococcus aureus ATCC 33591 assessed as bacterial growth inhibition measured after 16 to 18 hrs by serial dilution method; conditions: time 16-18 hrs
structure (smiles),measurement,setting,value
O=C(O)c1cn(C2CC2)c2cc(N3CCN(Cc4cn(-c5ccccc5)nn4)CC3)c(F)cc2c1=O,MIC,[1],0.12 µg/mL
same,MIC,[2],0.12 µg/mL
CCn1cc(C(=O)O)c(=O)c2cc(F)c(N3CCN(Cc4cn(-c5ccc([N+](=O)[O-])cc5)nn4)CC3)cc21,MIC,[1],0.12 µg/mL
same,MIC,[2],0.12 µg/mL
CCn1cc(C(=O)O)c(=O)c2cc(F)c(N3CCN(Cc4cn(-c5ccccc5)nn4)CC3)cc21,MIC,[1],0.12 µg/mL
same,MIC,[2],0.12 µg/mL
Cc1ccc(-n2cc(CN3CCN(c4cc5c(cc4F)c(=O)c(C(=O)O)cn5C4CC4)CC3)nn2)cc1,MIC,[1],0.12 µg/mL
same,MIC,[2],0.12 µg/mL
CCn1cc(C(=O)O)c(=O)c2cnc(N3CCN(Cc4cn(-c5ccc([N+](=O)[O-])cc5)nn4)CC3)nc21,MIC,[1],0.12 µg/mL
same,MIC,[2],0.12 µg/mL
CCn1cc(C(=O)O)c(=O)c2cnc(N3CCN(Cc4cn(-c5ccccc5)nn4)CC3)nc21,MIC,[1],0.12 µg/mL
same,MIC,[2],0.12 µg/mL
CCn1nnnc1SCCC(=O)N1CCN(c2cc3c(cc2F)c(=O)c(C(=O)O)cn3C2CC2)CC1,Ratio,[3],2
COc1cc(-n2nnnc2SCCC(=O)N2CCN(c3cc4c(cc3F)c(=O)c(C(=O)O)cn4C3CC3)CC2)cc(OC)c1OC,Ratio,[3],2
O=C(O)c1cn(C2CC2)c2cc(N3CCN(C(=O)CCSc4nnnn4-c4ccc(F)c(F)c4F)CC3)c(F)cc2c1=O,Ratio,[3],2
O=C(O)c1cn(C2CC2)c2cc(N3CCN(C(=O)CCSc4nnnn4-c4ccc(C(F)(F)F)cc4)CC3)c(F)cc2c1=O,Ratio,[3],2
O=C(O)c1cn(C2CC2)c2cc(N3CCN(C(=O)CCSc4nnnn4-c4ccccc4)CC3)c(F)cc2c1=O,Ratio,[3],2
O=C(O)c1cn(C2CC2)c2cc(N3CCN(C(=O)CCSc4nnnn4-c4ccc(Br)cc4)CC3)c(F)cc2c1=O,Ratio,[3],2
COc1c(N2C[C@H]3CCCN(S(=O)(=O)c4ccc(F)cc4)[C@H]3C2)c(F)cc2c(=O)c(C(=O)O)cn(C3CC3)c12,MIC,[4],< 2.64 µg/mL
same,MIC,[5],< 2.64 µg/mL
COc1ccc(S(=O)(=O)N2CCC[C@@H]3CN(c4c(F)cc5c(=O)c(C(=O)O)cn(C6CC6)c5c4OC)C[C@@H]32)cc1,MIC,[4],< 2.64 µg/mL
same,MIC,[5],< 2.64 µg/mL
COc1c(N2C[C@H]3CCCN(S(=O)(=O)c4ccc(Cl)cc4)[C@H]3C2)c(F)cc2c(=O)c(C(=O)O)cn(C3CC3)c12,MIC,[4],< 2.64 µg/mL
same,MIC,[5],< 2.64 µg/mL
O=C(CSC(=S)N1CCN(c2cc3c(cc2F)c(=O)c(C(=O)O)cn3C2CC2)CC1)Nc1cccc(Cl)c1,MIC,[6],0.024 µg/mL
same,MIC,[7],0.024 µg/mL
COc1c(N2C[C@H]3CCCN(S(=O)(=O)c4ccccc4)[C@H]3C2)c(F)cc2c(=O)c(C(=O)O)cn(C3CC3)c12,MIC,[4],< 2.64 µg/mL
same,MIC,[5],< 2.64 µg/mL
CCn1cc(C(=O)O)c(=O)c2cnc(N3CCN(Cn4nc(-c5ccc(OC)cc5)n(-c5ccc(C(C)(C)C)cc5)c4=S)CC3)nc21,MIC,[8],0.98 µg/mL
CCn1cc(C(=O)O)c(=O)c2cc(F)c(N3CCN(Cn4nc(-c5ccccc5O)n(-c5ccc(OC)cc5)c4=S)CC3)cc21,MIC,[9],≤ 0.125 µg/mL
same,MIC,[10],≤ 0.125 µg/mL
same,MIC,[11],≤ 0.125 µg/mL
CCn1cc(C(=O)O)c(=O)c2cc(F)c(N3CCN(Cn4nc(-c5ccco5)oc4=S)CC3)cc21,MIC,[6],≤ 0.125 µg/mL
same,MIC,[12],≤ 0.125 µg/mL
same,MIC,[7],≤ 0.125 µg/mL
CCn1cc(C(=O)O)c(=O)c2cc(F)c(N3CCN(Cn4nc(-c5ccncc5)n(-c5ccc(OC)cc5)c4=S)CC3)cc21,MIC,[9],≤ 0.125 µg/mL
same,MIC,[10],≤ 0.125 µg/mL
same,MIC,[11],≤ 0.125 µg/mL
CCn1cc(C(=O)O)c(=O)c2cc(F)c(N3CCN(Cn4nc(Cn5nc(C)n(/N=C/c6ccccc6O)c5=O)n(-c5ccccc5)c4=O)CC3)cc21,MIC,[9],< 0.24 µg/mL
same,MIC,[13],< 28 µg/mL
same,MIC,[14],< 0.24 µg/mL
CCn1cc(C(=O)O)c(=O)c2cc(F)c(N3CCN(Cn4nc(-c5cnccn5)oc4=S)CC3)cc21,MIC,[6],≤ 0.125 µg/mL
same,MIC,[12],≤ 0.125 µg/mL
same,MIC,[7],≤ 0.125 µg/mL
CCCCCOc1ccc(C2C(Cl)C(=O)N2c2cc3[nH]cc(C(=O)O)c(=O)c3cc2F)cc1 (centres undefined),MIC,[6],0.02 µg/mL
same,MIC,[15],0.02 µg/mL
same,MIC,[12],0.02 µg/mL
same,MIC,[16],0.02 µg/mL
Cc1ccc(-c2ccnc(Nc3ccc4c(=O)c(C(=O)O)cn(C5CC5)c4c3)n2)cc1C,MIC,[17],0.38 µg/mL
